Assay [1] deals with T1, glucosylceramide synthase (Homo sapiens, UniProt Q16739).
T1 construct: Microsomes were isolated from A375 human melanoma cells; endogenous in cells; host or cells: A375 human melanoma cells (microsomal fraction, 100,000 g pellet)
T1 sequence (Q16739 1-394): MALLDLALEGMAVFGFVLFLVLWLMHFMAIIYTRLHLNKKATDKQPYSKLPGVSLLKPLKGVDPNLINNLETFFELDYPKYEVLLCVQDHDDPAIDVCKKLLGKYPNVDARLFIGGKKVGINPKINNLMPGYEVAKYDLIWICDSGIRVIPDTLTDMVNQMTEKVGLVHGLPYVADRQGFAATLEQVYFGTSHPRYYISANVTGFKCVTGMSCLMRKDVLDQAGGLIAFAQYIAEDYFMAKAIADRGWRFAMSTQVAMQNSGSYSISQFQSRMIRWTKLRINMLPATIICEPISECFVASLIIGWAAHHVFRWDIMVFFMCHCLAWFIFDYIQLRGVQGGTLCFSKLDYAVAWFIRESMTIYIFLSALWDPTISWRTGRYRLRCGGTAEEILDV
The assay is described as follows: microsomal assay measuring conversion of ceramide to glucosylceramide by HPLC (GCS IC50). In kind it is biochemical. Conditions: concentration causing 50% inhibition of glucosylceramide synthase activity. An outline of the steps: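 Microsomal preparation assayed for glucosylceramide synthase by direct HPLC measurement of ceramide conversion to glucosylceramide. GCS IC50 is the compound concentration giving 50% inhibition of enzyme activity.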

Assay [2] relates to GM3 expression on the cell surface, B16 mouse melanoma cells. The experiment in a line: cell based phenotypic assay, cell surface GM3 by antibody mediated immunofluorescence, B16 (GM3 B16 IC50). Conditions: Mus musculus, B16 mouse melanoma cells; 50% inhibition of GM3 expression on the cell surface; read-out: GM3 B16 IC50. An outline of the steps: (§1)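 Both lines undergo the phenotypic GM3 assay, and viability is recorded from that same cell-based run.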

In assay [3] the test system is GM3 expression on the cell surface, C32 human melanoma cells. The assay is described as follows: cell based phenotypic assay, cell surface GM3 by antibody mediated immunofluorescence, C32 (GM3 C32 IC50). As to conditions: Homo sapiens, C32 human melanoma cells; 50% inhibition of GM3 expression on the cell surface; read-out: GM3 C32 IC50. An outline of the steps:
as §1

For assay [4], the system named is B16 mouse melanoma cells. The assay is described as follows: cell viability in the B16 cell-based assay (Viability, B16 IC50). As to conditions: Mus musculus, B16, B16 cells; concentration causing 50% cell death; values greater than 10 represent a lack of cell death; read-out: Viability, B16 IC50. In short, it runs like this:
(§2)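 Two melanoma lines, mouse B16 and human C32, were treated and surface GM3 quantified by antibody immunofluorescence for IC50. A parallel viability readout gives the concentration killing 50% of cells, with values over 10 indicating no cell death.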

Assay [5] concerns C32 human melanoma cells. The assay is described as follows: cell viability in the C32 cell-based assay (Viability, C32 IC50). As to conditions: Homo sapiens, C32, C32 cells; concentration causing 50% cell death; values greater than 10 represent a lack of cell death; read-out: Viability, C32 IC50. An outline of the steps: as §2

Each structure is given as a SMILES string.

The term IC50 denotes the concentration that inhibits the measured activity by half. On to `CC1(NC(=O)C2CCN(c3ncc(Oc4ccc(F)cc4)cn3)CC2)CCN2CCC1CC2` (stereo not shown) [Example 130, 1-(5-(4-Fluorophenoxy)pyrimidin-2-yl)-N-(4-methyl-1-azabicyclo[3.2.2]nonan-4-yl)piperidine-4-carboxamide], for which the IC50 came to 0.889 nM in assay [1]; 16.9 nM in assay [2]; 0.156 nM in assay [3]; 5670 nM in assay [4]; 316 nM in assay [5].
As to `CC1(NC(=O)C2(F)CCN(c3ncc(OCc4ccc(F)cc4)cn3)CC2)CCN2CCC1CC2` (stereo not shown) [Example 132, 4-Fluoro-1-(5-((4-fluorobenzyl)oxy)pyrimidin-2-yl)-N-(4-methyl-1-azabicyclo[3.2.2]nonan-4-yl)piperidine-4-carboxamide], the IC50 in assay [1] worked out at 10.7 nM; in assay [2] it was 115 nM; in assay [3], 2.65 nM; in assay [4], 4590 nM; in assay [5], 1000 nM.
In the case of `CC1(NC(=O)C2(F)CCN(c3cnc(Oc4ccc(F)cc4)cn3)CC2)CN2CCC1CC2` (stereo not shown) [Example 133, 4-Fluoro-1-(5-(4-fluorophenoxy)pyrazin-2-yl)-N-(3-methylquinuclidin-3-yl)piperidine-4-carboxamide], the IC50 was 45.9 nM in assay [1]; 467 nM in assay [2]; 4.83 nM in assay [3]; at least 10000 nM in assay [4]; 1000 nM in assay [5].
As to `CC1(NC(=O)C2(F)CCN(c3ccc(Oc4ccc(F)cc4)nn3)CC2)CCN2CCC1CC2` (stereo not shown) [Example 134, 4-Fluoro-1-(6-(4-fluorophenoxy)pyridazin-3-yl)-N-(4-methyl-1-azabicyclo[3.2.2]nonan-4-yl)piperidine-4-carboxamide], the IC50 in assay [1] is 14.5 nM; in assay [2], 343 nM; in assay [3], 2.83 nM; in assay [4] it was at least 10000 nM; in assay [5], 1000 nM.
On the same counts, the results for `CC1(NC(=O)C2(F)CCN(c3nccc(COc4ccc(F)cc4)n3)CC2)CN2CCC1CC2` (stereo not shown) [Example 135, 4-Fluoro-1-(4-((4-fluorophenoxy)methyl)pyrimidin-2-yl)-N-(3-methylquinuclidin-3-yl)piperidine-4-carboxamide] are 1.38 nM, 31.7 nM, 0.132 nM, 8250 nM and 46.4 nM.
On to `COCCOc1ccc(Cc2cnc(N3CCC(F)(C(=O)NC4(C)CN5CCC4CC5)CC3)nc2)cc1` (stereo not shown) [Example 136], for which the concentration for half-maximal inhibition (IC50) was 7.9 nM in assay [1]; 24.9 nM in assay [2]; 0.716 nM in assay [3]; at least 10000 nM in assay [4]; 1000 nM in assay [5].
On the same counts, the results for `CC1CN(C(=O)NC2(C)CCN3CCC2CC3)CCN1c1nccc(-c2ccccc2)n1` (stereo not shown) [Example 141, 3-Methyl-N-(4-methyl-1-azabicyclo[3.2.2]nonan-4-yl)-4-(4-phenylpyrimidin-2-yl)piperazine-1-carboxamide] are 5.96 nM, 209 nM, 0.888 nM, 4670 nM and 316 nM.
On the same counts, the results for `CCC1CN(C(=O)NC2(C)CCN3CCC2CC3)CCN1c1nccc(-c2ccccc2)n1` (stereo not shown) [Example 142, 3-Ethyl-N-(4-methyl-1-azabicyclo[3.2.2]nonan-4-yl)-4-(4-phenylpyrimidin-2-yl)piperazine-1-carboxamide] are 7.69 nM, 100 nM, 0.861 nM, 5340 nM and 9210 nM.
Take `COCC1CN(C(=O)NC2(C)CCN3CCC2CC3)CCN1c1nccc(-c2ccccc2)n1` (stereo not shown) [Example 144, 3-(Methoxymethyl)-N-(4-methyl-1-azabicyclo[3.2.2]nonan-4-yl)-4-(4-phenylpyrimidin-2-yl)piperazine-1-carboxamide]: the IC50 was 67.3 nM in assay [1]; 529 nM in assay [2]; 6.33 nM in assay [3]; at least 10000 nM in assay [4]; 1000 nM in assay [5].
On the same counts, the results for `CC1CN(C(=O)NC2(C)CCN3CCC2CC3)CCN1c1nccc(-c2ccc(F)cc2)n1` (stereo not shown) [Example 145, 4-(4-(4-Fluorophenyl)pyrimidin-2-yl)-3-methyl-N-(4-methyl-1-azabicyclo[3.2.2]nonan-4-yl)piperazine-1-carboxamide] are 8.01 nM, 76.3 nM, 0.507 nM, 6980 nM and 316 nM.
`COCc1ccc(-c2nc(N3CCN(C(=O)NC4(C)CCN5CCC4CC5)CC3C(C)C)ncc2F)cc1` (stereo not shown) [Example 148, 4-(5-Fluoro-4-(4-(methoxymethyl)phenyl)pyrimidin-2-yl)-3-isopropyl-N-(4-methyl-1-azabicyclo[3.2.2]nonan-4-yl)piperazine-1-carboxamide]: the IC50 in assay [1] amounted to 17.4 nM; in assay [2], 390 nM; in assay [3] it was 8.59 nM; in assay [4], 3460 nM; in assay [5], 1000 nM.
On the same counts, the results for `COCc1ccc(-c2ccnc(N3CCN(C(=O)NC4(C)CCN5CCC4CC5)CC3C(F)(F)F)n2)cc1` (stereo not shown) [Example 149, 4-(4-(4-(Methoxymethyl)phenyl)pyrimidin-2-yl)-N-(4-methyl-1-azabicyclo[3.2.2]nonan-4-yl)-3-(trifluoromethyl)piperazine-1-carboxamide] are 10.9 nM, 279 nM, 1.5 nM, 4310 nM and 1000 nM.
As to `COCc1ccc(-c2ccnc(N3CCN(C(=O)NC4(C)CCN5CCC4CC5)CC3C(F)F)n2)cc1` (stereo not shown) [Example 150, 3-(Difluoromethyl)-4-(4-(4-(methoxymethyl)phenyl)pyrimidin-2-yl)-N-(4-methyl-1-azabicyclo[3.2.2]nonan-4-yl)piperazine-1-carboxamide], the IC50 was 23 nM in assay [1]; 195 nM in assay [2]; 1.06 nM in assay [3]; 5440 nM in assay [4]; 1000 nM in assay [5].
Consider `COCc1ccc(-c2ncnc(N3CCN(C(=O)NC4(C)CCN5CCC4CC5)CC3C(C)C)n2)cc1` (stereo not shown) [Example 151, 3-Isopropyl-4-(4-(4-(methoxymethyl)phenyl)-1,3,5-triazin-2-yl)-N-(4-methyl-1-azabicyclo[3.2.2]nonan-4-yl)piperazine-1-carboxamide], for which the IC50 in assay [1] was 324 nM; in assay [2], 1820 nM; in assay [3], 95.6 nM; in assay [4], 9840 nM; in assay [5] it was 1000 nM.
On to `C[C@@H]1CN(C(=O)NC2(C)CCN3CCC2CC3)CCN1c1ncc(Oc2ccc(F)cc2)cn1` (stereo partly drawn) [Example 152, (3R)-4-(5-(4-Fluorophenoxy)pyrimidin-2-yl)-3-methyl-N-(4-methyl-1-azabicyclo[3.2.2]nonan-4-yl)piperazine-1-carboxamide], for which the IC50 in assay [1] is 2.88 nM; in assay [2], 76.3 nM; in assay [3] it was 0.439 nM; in assay [4], 6770 nM; in assay [5], 316 nM.
Consider `C#CC1CN(C(=O)NC2(C)CCN3CCC2CC3)CCN1c1nccc(-c2ccc(COC)cc2)n1` (stereo not shown) [Example 153, 3-Ethynyl-4-(4-(4-(methoxymethyl)phenyl)pyrimidin-2-yl)-N-(4-methyl-1-azabicyclo[3.2.2]nonan-4-yl)piperazine-1-carboxamide], for which the IC50 was 53.4 nM in assay [1]; 2640 nM in assay [2]; 11.7 nM in assay [3]; at least 10000 nM in assay [4]; 1000 nM in assay [5].
With `CC1CN(C(=O)OC2CCN3CCC2CC3)CCN1c1nccc(-c2ccccc2)n1` (stereo not shown) [Example 154, 1-Azabicyclo[3.2.2]nonan-4-yl 3-methyl-4-(4-phenylpyrimidin-2-yl)piperazine-1-carboxylate], the IC50 in assay [1] was 57 nM; in assay [2], 1930 nM; in assay [3] it was 16.5 nM; in assay [4], 2840 nM; in assay [5], 1000 nM.
